# Experimental data reported in PubChem BioAssay (NCI).
#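 The compound was tested at five concentrations on cells cultured in 96-well plates, with a 48-hour exposure period. The concentration for 50% growth inhibition is given as GI50. TGI denotes the concentration required for complete inhibition of growth.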
# How the values were obtained:
# Test in all cases: inhibition of tumour cell growth, NCI panel, 48 h
# MDA-MB-435 = test system: MDA-MB-435
# OVCAR-5 ovarian = test system: OVCAR-5 ovarian
# HT29 colon = test system: HT29 colon
# SF-295 CNS = test system: SF-295 CNS
# HCT-116 colon = test system: HCT-116 colon
# KM12 colon = test system: KM12 colon
# HOP-92 NSCLC = test system: HOP-92 NSCLC
# SK-MEL-5 melanoma = test system: SK-MEL-5 melanoma
# NCI/ADR-RES ovarian = test system: NCI/ADR-RES ovarian
# RXF 393 renal = test system: RXF 393 renal
SMILES,GI50 (MDA-MB-435) [µM],TGI (MDA-MB-435) [µM],GI50 (OVCAR-5 ovarian) [µM],TGI (OVCAR-5 ovarian) [µM],GI50 (HT29 colon) [µM],TGI (HT29 colon) [µM],GI50 (SF-295 CNS) [µM],TGI (SF-295 CNS) [µM],GI50 (HCT-116 colon) [µM],TGI (HCT-116 colon) [µM],GI50 (KM12 colon) [µM],TGI (KM12 colon) [µM],GI50 (HOP-92 NSCLC) [µM],TGI (HOP-92 NSCLC) [µM],GI50 (SK-MEL-5 melanoma) [µM],TGI (SK-MEL-5 melanoma) [µM],GI50 (NCI/ADR-RES ovarian) [µM],TGI (NCI/ADR-RES ovarian) [µM],TGI (RXF 393 renal) [µM],GI50 (RXF 393 renal) [µM]
O=C(Cc1csc2nc(-c3ccc(Br)cc3)cn12)N/N=C/c1ccc(O)cc1,6.27,24.3,27.6,> 100,49.9,> 100,12,41.7,10.5,24.2,17.6,76.7,18.9,68.9,7.14,22.2,21.2,61.1,,
CC(=O)Oc1ccc2c(c1)CC[C@@H]1C2CC[C@]2(C)C(=O)NC(=O)CC12 (stereo partly specified),,> 100,,> 100,,> 100,,> 100,,> 100,,> 100,,> 100,,> 100,,,> 100,
COc1ccccc1NC(=O)C(CC(C(=O)Nc1ccccc1OC)/C(C)=N/Nc1ccc([N+](=O)[O-])cc1[N+](=O)[O-])/C(C)=N/Nc1ccc([N+](=O)[O-])cc1[N+](=O)[O-] (stereo unspecified),,,,> 100,,> 100,,> 100,,> 100,,> 100,,> 100,,> 100,,,> 100,
Nc1[nH]c(=O)ncc1CO,> 100,> 100,> 100,> 100,> 100,> 100,> 100,> 100,> 100,> 100,> 100,> 100,> 100,> 100,> 100,> 100,,,> 100,> 100
C/C(CC(=O)N(C(C)C)C(C)C)=N\NC(=O)c1ccncc1,,,,,,> 100,,> 100,,> 100,,,,> 100,,> 100,,,> 100,
CSC1=NCC2(S1)c1ccccc1N(C(=O)OC(C)(C)C)C2N1CCCCC1 (stereo unspecified),,,> 100,> 100,> 100,> 100,,,40.6,> 100,> 100,> 100,51.5,> 100,> 100,> 100,> 100,> 100,> 100,78
CCOc1ccc(C(CN2CCOCC2)C(C)=O)cc1OC (stereo unspecified),,,,33.2,,34.8,,> 100,,43.5,,29,,35.7,,35.2,,,41.1,
O=S(=O)(c1ccc(O)c(C=Nc2ccc(Cl)cc2)c1)c1ccc(O)c(C=Nc2ccc(Cl)cc2)c1,,,,> 100,,> 100,,> 100,,> 100,,> 100,,> 100,,> 100,,,> 100,
O=C1c2ccccc2C(=O)c2nc3ccc(Cl)cc3cc21,,,,> 100,,> 100,,> 100,,> 100,,> 100,,> 100,,> 100,,,,
OCNCCNc1nc2ccccc2c2[nH]c3ccccc3c12,1.46,5.11,0.582,6.75,0.556,> 50,1.41,5.97,0.186,1.14,1.54,7.37,,,1.28,4.09,7.17,22.6,5.85,1.11
COC(=O)CC(C(C(C)=O)C(=O)OCc1ccccc1)N1C(=O)OCC1c1ccccc1 (stereo unspecified),,,,,,> 100,,> 100,,> 100,,,,,,> 100,,,> 100,
CCOC(=O)C(NC(=O)c1[nH]cnc1/N=N/N(C)C)C(C)C (stereo unspecified),,,,> 100,,> 100,,> 100,,> 100,,> 100,,,,> 100,,,,
COc1ccc(S(=O)(=O)N(C)CC(=O)O)cc1,,,,> 100,,> 100,,> 100,,,,> 100,,> 100,,> 100,,,> 100,
CCCCCCCCCCCCCCCCOC(=O)c1cc(O)cc(C(=O)OCCCCCCCCCCCCCCCC)c1,,,,> 100,,> 100,,> 100,,> 100,,> 100,,> 100,,> 100,,,> 100,
FC1OC2OC1C(OCc1ccccc1)C(OCc1ccccc1)C2OCc1ccccc1 (stereo unspecified),,,,> 100,,> 100,,> 100,,63.2,,> 100,,64,,> 100,,,> 100,
CC(=O)OC1CC2C(=O)C(=O)C1(C)C2(C)C (stereo unspecified),,> 100,,> 100,,> 100,,> 100,,> 100,,,,> 100,,> 100,,> 100,,
C#CCN(Cc1ccc2nc(N)[nH]c(=O)c2c1)c1ccc(C(=O)NC(CCC(=O)O)C(=O)O)cc1 (stereo unspecified),,> 100,,> 100,,> 100,,> 100,,> 100,,> 100,,> 100,,> 100,,> 100,,
COc1ccc(CCN=C2CCC(C(=O)NCCc3ccc(OC)c(OC)c3)N2)cc1OC (stereo unspecified),,,,> 100,,> 100,,> 100,,> 100,,> 100,,> 100,,> 100,,,,
CCN(CC)CCN(C(=O)C(C)(C)C)c1ccccc1N,,,,> 100,,> 100,,> 100,,> 100,,> 100,,> 100,,> 100,,> 100,> 100,
C[C@]12CC[C@H](OC3CCCCO3)CC1=CC[C@@H]1C2CC[C@]2(C)/C(=N/O)CCC12 (stereo partly specified),,,,75.6,,26.8,,34.9,,29.6,,32.4,,46,,> 100,,,44.8,
CNC(=O)CN(CC(N)=O)C(N)=O,,,,> 100,,> 100,,> 100,,,,> 100,,> 100,,> 100,,,> 100,
COc1ccc2nc3ccccc3c(NCCCCN(C)CCCl)c2c1,,0.325,,1.08,,1.46,,1.17,,0.303,,0.4,,,,0.442,,,0.362,
